Patent US11351125B2, “Poly(n-butyl cyanoacrylate) nanoparticle with dual modifications, preparation method and use thereof” (Xuanwu Hospital of Capital Medical University, priority 2016, dated 2022)

Assays:
[1] = Pharmacokinetics of docetaxel after intravenous administration in rats; assay type: in vivo, Wistar rats; settings: rat, HPLC
Experimental: 6- to 8-week old male Wistar rats were subjected to jugular vein catheterization. […] The rats were administered with a docetaxel solution (a free drug) and docetaxel-loaded PBCA nanoparticles with dual modifications by PEG20000-cholesterol, respectively. […] After treatment, the content of docetaxel in the blood was determined by HPLC.

[2] = system: 4T1 cells (mouse breast cancer cells); test: Inhibition of tumor cell proliferation in vitro, MTT; assay type: cell-based; settings: 0.0001 nmol/ml (as docetaxel), 24 h
Experimental: (2) Method: MTT method was used to determine the proliferation state of tumor cells. The particular steps were as followed: 4T1 cells (mouse breast cancer cells) in the logarithmic growth phase were digested and counted, and then seeded to a 96-well plate at a density of 5×10^4/well. […] After further incubation for 24 h and 48 h, respectively, the old medium was pipetted off, and a medium containing 0.5 mg/ml MTT was added to each well. After further incubation for 4 h, the medium was pipetted off, and washing with PBS was performed twice. DMSO (200 μl) was added to dissolve the formazan crystal, and shaking was performed in dark for 10 min; and then the OD value of each well at 490 nm was determined by ELISA instrument. The OD value of the cells incubated without the addition of drug was used as control (100%), and the cell viability for each drug groups were calculated, so as to study the proliferation state of tumor cells, wherein 5 parallel wells were set for each group.

[3] = Brain tissue distribution of docetaxel in rats; assay type: in vivo, Wistar rats; settings: rat, tail vein injection, HPLC
Experimental: The rats were subjected to tail vein injection with a docetaxel solution (a free drug), and docetaxel-loaded PBCA nanoparticles with dual modifications by PEG20000-cholesterol, respectively. The rats were killed at different time points after administration, respectively, and the brain tissues were taken, washed with physiological saline and weighed. After treatment, the content of docetaxel in the brain tissue was determined by HPLC.

[4] = Brain tissue distribution of coumarin-6 in rats, Experiment 1 (time course); assay type: in vivo, Wistar rats; settings: rat, tail vein injection
Experimental: (1) Method: 6- to 8-week old male Wistar rats were randomly divided into 3 groups, with 21 rats for each group. The rats were subjected to tail vein injection with an equimolar amount of a coumarin-6 solution (a free drug), coumarin-6-loaded nanoparticles with single modification by cholesterol and PBCA nanoparticles with dual modifications by PEG20000-cholesterol as prepared in Example 1, respectively. The rats were killed at different time points (15 min, 30 min, 1 h, 2 h, 4 h, 8 h, 12 h) after administration, brain tissues were taken, and the content of coumarin-6 in brain was determined.

[5] = rat
Experimental: (2) Method: 6- to 8-week old male Wistar rats were randomly divided into 3 groups, with 6 rats for each group. The rats were anesthetized by intraperitoneal injection of a pentobarbital solution (40 mg/kg), and jugular vein catheterization was performed. […] After treatment, the content of coumarin-6 in the blood was determined.

Compound	sustained release in vivo (docetaxel detectable in blood) [1] [h]	cell viability of the tumor cells [2]	docetaxel in the brain after intravenous administration [3]	content of coumarin-6 in the brain tissue ([4]; 15 min-12 h) [ng/g brain tissue]	coumarin-6 in the brain tissue 8 h after administration ([4]; 8 h)	release time in vivo (coumarin-6 detectable in blood) [5] [h]	AUC0-t ([5]; in vivo, iv) [µg·min/mL]	AUC0-∞ ([5]; in vivo, iv) [µg·min/mL]	C0 ([5]; in vivo, iv) [ng/mL]	CL ([5]; in vivo, iv) [mL/min]	Vd, λz ([5]; in vivo, iv) [L]	t1/2, λz ([5]; in vivo, iv) [h]
CC(=O)O[C@@]12CO[C@@H]1C[C@H](O)[C@@]1(C)C(=O)[C@H](O)C3=C(C)[C@@H](OC(=O)[C@H](O)[C@@H](NC(=O)OC(C)(C)C)c4ccccc4)C[C@@](O)([C@@H](OC(=O)c4ccccc4)[C@H]21)C3(C)C [docetaxel]	< 2	no significant change	could not be detected in the brain	–	–	–	–	–	–	–	–	–
coumarin-6 [Free drug]	–	–	–	≤ 50	no coumarin-6 was detected	≤ 4	15.8 ± 2.4	16.0 ± 2.3	828.4 ± 139.0	6.4 ± 0.9	0.6 ± 0.3	1 ± 0.4
